# In US9120749B2, “Quinoline derivatives and MELK inhibitors containing the same” (ONCOTHERAPY SCIENCE, INC., priority 2010, dated 2015):
# Structures can show the parent of a compound that is named as a salt.
# What was measured:
# HT-1197 cells = experiment: Cell-based assay: anti-proliferative activity, Cell Counting Kit-8, 72 hours (HT-1197, negative control without MELK expression); settings: Homo sapiens, HT1197, 72 h, HT1197 cells (negative control), 72 hours
# Method in brief: (§1)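 T47D, A549 and BT-549 cells, with MELK-negative HT-1197 as control (MELK status checked by western blot), seeded at 2,000–3,000 cells/well. Growth measured by CCK-8 72 hours after inhibitor exposure; IC50 values calculated.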
# DU4475 cells = experiment: Cell-based assay: anti-proliferative activity, Cell Counting Kit-8, 72 hours (DU4475); settings: Homo sapiens, DU-4475, 72 h
# MELK = MELK (Homo sapiens, UniProt Q14680); experiment: Kinase assay: MELK activity, phosphorylation of FITC-labeled histone H3 peptide measured by IMAP fluorescence polarization; assay type: biochemical; settings: read-out: IC50 (μM) (kinase assay)
# MELK, sequence (Q14680 whole entry, looked up): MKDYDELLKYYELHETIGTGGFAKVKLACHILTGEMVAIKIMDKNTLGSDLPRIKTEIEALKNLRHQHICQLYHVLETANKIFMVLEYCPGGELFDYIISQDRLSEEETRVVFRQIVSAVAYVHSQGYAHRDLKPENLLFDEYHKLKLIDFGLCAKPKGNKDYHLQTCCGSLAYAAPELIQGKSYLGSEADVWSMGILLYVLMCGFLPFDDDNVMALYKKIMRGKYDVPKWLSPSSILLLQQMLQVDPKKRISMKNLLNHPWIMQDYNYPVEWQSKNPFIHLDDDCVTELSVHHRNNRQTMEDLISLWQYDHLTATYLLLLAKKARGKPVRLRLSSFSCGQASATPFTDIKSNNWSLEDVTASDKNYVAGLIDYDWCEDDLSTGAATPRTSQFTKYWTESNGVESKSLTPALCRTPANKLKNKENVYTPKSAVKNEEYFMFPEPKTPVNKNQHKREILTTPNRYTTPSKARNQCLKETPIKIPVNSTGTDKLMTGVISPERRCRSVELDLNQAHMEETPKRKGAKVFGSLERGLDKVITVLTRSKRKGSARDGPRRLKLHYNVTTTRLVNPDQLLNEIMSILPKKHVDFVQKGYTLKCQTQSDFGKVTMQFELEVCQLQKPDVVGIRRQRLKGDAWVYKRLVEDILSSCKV
# Method in brief: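 A FITC-labelled histone H3 peptide served as substrate, with compounds serially diluted to 1% DMSO final. Reactions were stopped with three volumes of IMAP progressive binding solution. After 0.5 h at room temperature, fluorescence polarization was read.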
# T47D cells = experiment: Cell-based assay: anti-proliferative activity, Cell Counting Kit-8, 72 hours (T47D); settings: Homo sapiens, T47D, 72 h
# Method in brief: as §1
# A549 cells = experiment: Cell-based assay: anti-proliferative activity, Cell Counting Kit-8, 72 hours (A549); settings: Homo sapiens, A549, 72 h, 72 hours
# Method in brief: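 A549 cells seeded in 96-well plates and exposed to candidate inhibitors for 72 hours. Growth measured with Cell Counting Kit-8; IC50 values calculated from the dose response.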
SMILES,IC50 (HT-1197 cells),IC50 (DU4475 cells),IC50 (MELK),IC50 (T47D cells),IC50 (A549 cells)
"NC[C@H]1CC[C@@H](Nc2c(C(=O)C3CC3)cnc3ccc(-c4cc(F)c(O)c(Cl)c4)cc23)CC1 [Example 515, (4-((1s,4s)-4-(aminomethyl)cyclohexylamino)-6-(3-chloro-5-fluoro-4-hydroxyphenyl)quinolin-3-yl)(cyclopropyl)methanone]",3.9 µM,0.12 µM,0.0034 µM,0.23 µM,0.83 µM
CN[C@H]1CC[C@H](Nc2c(C(=O)C3CC3)cnc3ccc(-c4cnc(C#N)nc4)cc23)CC1 [Example 522],1.1 µM,0.91 µM,0.0014 µM,0.23 µM,0.95 µM
"NC1CCCN(c2ccc(Nc3c(C(=O)C4CC4)cnc4ccc(-c5cc(Cl)c(O)c(Cl)c5)cc34)cn2)C1 (stereo not shown) [Example 556, (4-(6-(3-aminopiperidin-1-yl)pyridin-3-ylamino)-6-(3,5-dichloro-4-hydroxyphenyl)quinolin-3-yl)(cyclopropyl)methanone]",0.96 µM,0.016 µM,0.0044 µM,0.03 µM,0.023 µM
"CCCC(=O)c1cnc2ccc(-c3cnc(C#N)nc3)cc2c1Nc1ccc(CN(C)C)cc1 [Example 539, 5-(3-butyryl-4-(4-((dimethylamino)methyl)phenylamino)quinolin-6-yl)pyrimidine-2-carbonitrile]",1.6 µM,1.5 µM,0.0038 µM,0.37 µM,1.6 µM
"CCCC(=O)c1cnc2ccc(-c3cc(F)c(O)c(Cl)c3)cc2c1N[C@H]1CC[C@H](CN(C)C)CC1 [Example 597, 1-{6-(3-Chloro-5-fluoro-4-hydroxyphenyl)-4-[trans-4-((dimethylamino)methyl)cyclohexylamino]quinolin-3-yl}butan-1-one]",1.1 µM,0.083 µM,0.0073 µM,0.11 µM,0.16 µM
"COc1cc(-c2ccc3ncc(C(=O)C4CC4)c(Nc4ccc(N5CCNCC5)cn4)c3c2)cc(Cl)c1O [Example 528, (6-(3-chloro-4-hydroxy-5-methoxyphenyl)-4-(5-(piperazin-1-yl)pyridin-2-ylamino)quinolin-3-yl)(cyclopropyl)methanone hydrochloride]",4.2 µM,1.7 µM,0.0044 µM,1.8 µM,1.3 µM
"CN1CCC(n2cc(Nc3c(C(=O)C4CC4)cnc4ccc(-c5cc(Cl)c(O)c(Cl)c5)cc34)cn2)CC1 [Example 593, Cyclopropyl(6-(3,5-dichloro-4-hydroxyphenyl)-4-(1-(1-methylpiperidin-4-yl)-1H-pyrazol-4-ylamino)quinolin-3-yl)methanone]",4.3 µM,0.044 µM,0.0013 µM,0.32 µM,0.094 µM
"CN(C)CCc1ccc(Nc2c(C(=O)C3CC3)cnc3ccc(-c4cc(Cl)c(O)c(Cl)c4)cc23)cc1 [Example 613, Cyclopropyl(6-(3,5-dichloro-4-hydroxyphenyl)-4-(4-(2-(dimethylamino)ethyl)phenylamino)quinolin-3-yl)methanone]",1 µM,0.028 µM,0.0022 µM,0.13 µM,0.075 µM
"CN(C)Cc1ccc(Nc2c(C(=O)C3CC3)cnc3cc(F)c(-c4cc(F)c(O)c(Cl)c4)cc23)cc1 [Example 541, (6-(3-Chloro-5-fluoro-4-hydroxyphenyl)-4-(4-((dimethylamino)methyl)phenylamino)-7-fluoroquinolin-3-yl)(cyclopropyl)methanone]",1.1 µM,0.087 µM,0.077 µM,0.42 µM,0.076 µM
"COc1cc(-c2ccc3ncc(C(C)=O)c(Nc4cnc(N5CCNCC5)nc4)c3c2)cc(Cl)c1O [Example 616, 1-(6-(3-chloro-4-hydroxy-5-methoxyphenyl)-4-(2-(piperazin-1-yl)pyrimidin-5-ylamino)quinolin-3-yl)ethanone]",1.8 µM,0.5 µM,0.0044 µM,0.22 µM,0.66 µM
"NC1CCN(c2ncc(Nc3c(C(=O)C4CC4)cnc4ccc(-c5cc(Cl)c(O)c(Cl)c5)cc34)cn2)C1 (stereo not shown) [Example 574, (4-(2-(3-aminopyrrolidin-1-yl)pyrimidin-5-ylamino)-6-(3,5-dichloro-4-hydroxyphenyl)quinolin-3-yl)(cyclopropyl)methanone]",1.4 µM,0.021 µM,0.0018 µM,0.031 µM,0.087 µM
"COc1cc(-c2ccc3ncc(C(=O)C4CC4)c(Nc4cnc(N5CCC(N)C5)nc4)c3c2)cc(Cl)c1O (stereo not shown) [Example 582, (4-(2-(3-aminopyrrolidin-1-yl)pyrimidin-5-ylamino)-6-(3-chloro-4-hydroxy-5-methoxyphenyl)quinolin-3-yl)(cyclopropyl)methanone]",1.1 µM,0.064 µM,0.0031 µM,0.052 µM,0.097 µM
"O=C(c1cnc2cc(F)c(-c3cc(Cl)c(O)c(Cl)c3)cc2c1Nc1ccc(N2CCNCC2)nc1)C1CC1 [Example 559, cyclopropyl(6-(3,5-dichloro-4-hydroxyphenyl)-7-fluoro-4-(6-(piperazin-1-yl)pyridin-3-ylamino)quinolin-3-yl)methanone]",3.2 µM,0.35 µM,0.01 µM,0.46 µM,0.59 µM
"CC(C)C(=O)c1cnc2ccc(-c3cc(Cl)c(O)c(Cl)c3)cc2c1N[C@H]1CC[C@H](CN(C)C)CC1 [Example 608, 1-(6-(3,5-dichloro-4-hydroxyphenyl)-4-((1R,4R)-4-((dimethylamino)methyl)cyclohexylamino)quinolin-3-yl)-2-methylpropan-1-one]",0.46 µM,0.072 µM,0.0022 µM,0.15 µM,0.25 µM
CN[C@H]1CC[C@H](Nc2c(C(C)=O)cnc3ccc(-c4cc(Cl)c(O)c(OC)c4)cc23)CC1 [Example 542],1.7 µM,0.069 µM,0.0043 µM,0.078 µM,0.1 µM
"C=CCN(CC=C)C1(C)CCC(Nc2c(C(=O)C3CC3)cnc3ccc(-c4cc(Cl)c(O)c(Cl)c4)cc23)CC1 (stereo not shown) [Example 583, Cyclopropyl{4-[4-(diallylamino)-4-methylcyclohexylamino]-6-(3,5-dichloro-4-hydroxyphenyl)quinolin-3-yl}methanone]",10 µM,2.3 µM,0.089 µM,2.6 µM,3.1 µM
"COc1cc(-c2ccc3ncc(C(=O)C4CC4)c(C4=CCN(C(=O)CN(C)C)CC4)c3c2)cc(Cl)c1O [Example 521, 1-(4-(6-(3-chloro-4-hydroxy-5-methoxyphenyl)-3-(cyclopropanecarbonyl)quinolin-4-yl)-5,6-dihydropyridin-1(2H)-yl)-2-(dimethylamino)ethanone]",1.5 µM,0.27 µM,0.0024 µM,0.22 µM,0.18 µM
"CCCC(=O)c1cnc2ccc(-c3cc(F)c(O)c(Cl)c3)cc2c1N[C@H]1CC[C@H](N)CC1 [Example 532, 1-(4-((trans-4-aminocyclohexyl)amino)-6-(3-chloro-5-fluoro-4-hydroxyphenyl)quinolin-3-yl)butan-1-one]",2.9 µM,0.03 µM,0.017 µM,0.046 µM,0.49 µM
"COc1cc(-c2ccc3ncc(C(=O)C4CC4)c(Nc4cnc(N5CCC(N)CC5)nc4)c3c2)cc(Cl)c1O [Example 553, (4-(2-(4-aminopiperidin-1-yl)pyrimidin-5-ylamino)-6-(3-chloro-4-hydroxy-5-methoxyphenyl)quinolin-3-yl)(cyclopropyl)methanone]",2.1 µM,0.95 µM,0.0056 µM,0.12 µM,0.39 µM
"CN1CCC(n2cc(Nc3c(C(=O)C4CC4)cnc4ccc(-c5cc(F)c(O)c(Cl)c5)cc34)cn2)CC1 [Example 592, (6-(3-Chloro-5-fluoro-4-hydroxyphenyl)-4-(1-(1-methylpiperidin-4-yl)-1H-pyrazol-4-ylamino)quinolin-3-yl)(cyclopropyl)methanone]",2.8 µM,0.068 µM,0.0015 µM,0.24 µM,0.13 µM
"COc1cc(-c2ccc3ncc(C(=O)C4CC4)c(Nc4ccc(N)nc4)c3c2)cc(Cl)c1O [Example 589, (4-(6-aminopyridin-3-ylamino)-6-(3-chloro-4-hydroxy-5-methoxyphenyl)quinolin-3-yl)(cyclopropyl)methanone]",1.4 µM,0.21 µM,0.011 µM,0.61 µM,0.18 µM
"Nc1ccc(Nc2c(C(=O)C3CC3)cnc3ccc(-c4cc(F)c(O)c(Cl)c4)cc23)cn1 [Example 591, (4-(6-aminopyridin-3-ylamino)-6-(3-chloro-5-fluoro-4-hydroxyphenyl)quinolin-3-yl)(cyclopropyl)methanone]",1.4 µM,0.12 µM,0.032 µM,0.26 µM,0.36 µM
"O=C(c1cnc2ccc(-c3cc(F)c(O)c(Cl)c3)cc2c1N[C@H]1CC[C@H](CN2CC[C@@H](F)C2)CC1)C1CC1 [Example 570, (6-(3-chloro-5-fluoro-4-hydroxyphenyl)-4-((trans-4-(((R)-3-fluoropyrrolidin-1-yl)methyl)cyclohexyl)amino)quinolin-3-yl)(cyclopropyl)methanone]",0.16 µM,0.089 µM,0.016 µM,0.14 µM,0.13 µM
